Experimental findings from patent US11998600B2, “Enhancing the therapeutic activity of an immune checkpoint inhibitor” (MaineHealth, priority 2015, dated 2024) are described below.

One assay has as its system HRMVEC. Briefly: Cell proliferation assay, HRMVEC. It is filed as cell-based, human. The conditions noted are these: peptide 100 ng/ml, 24 hours; FIG. 8D. As to the method: HUVECs (WT, shYAP1 or control transfected) or HRMVECs were plated at 2,000 cells per well with complete EGM-2 media containing 2.0% FBS in the absence or presence of P-1, P-2 or P-C (100 ng/ml) and allowed to grow for 24 hours. Cell growth was monitored using a BrdU or MMT assay kits according to manufacturer's instructions. All assays were completed at least three times in triplicate wells.

A further assay deals with Fak. Put plainly: Fak phosphorylation in endothelial cells attached to collagen peptides. It is filed as cell-based, human. To be noted: serum free conditions. As to the method: (§1) Whole cell and CAM tissue lysates were collected in RIPA buffer supplemented with 1× protease inhibitor and 1× phosphatase inhibitor and were run on polyacrylamide gels using denaturing conditions. Prior to loading the gels, 6× sample buffer was added to each of the lysates (final concentration 1×) and boiled for five minutes. Twenty to 50 μg of total protein were loaded into each lane. For detection of proteins larger than 50 kD, 10% gels were used; for proteins smaller than 50 kD 15% gels were used. Gels were run at 60 volts (v) until the dye front passed through the stacking gel, and then the voltage was increased to 100V for the remainder of the separation. Precision Plus protein standards (Bio-Rad) were used to visualize migration. […] Western blot bands were quantified using Image J software based on pixel intensity.
Because both RGD containing peptides bind αvβ3 coupled with the differential effect of these peptides on angiogenesis and inflammation, it was determined whether the RGD peptides differentially altered αvβ3-mediated signaling. […] Therefore, the differential phosphorylation of these protein kinases following the early mechanical-mediated interactions with the RGD containing collagen peptides was assessed. […]

For assay [1], the system named is chick chorioallantoic membrane (CAM). Briefly: Chick CAM inflammation assay, induction by RGD collagen peptides. It is filed as in vivo. The conditions noted are these: chick CAM, no cortisone acetate; FIG. 5D. As to the method:
(§2) The chick chorioallantoic membrane (CAM) assays were carried out with some modifications (19). For all experiments CAMs of 10-day-old chick embryos obtained from Charles River (North Franklin, CT) were separated from the shell membrane. Filter discs either non-treated (inflammation assays) pretreated (angiogenesis assays) with cortisone acetate (3.0 mg/ml) containing RPMI only or FGF-2 (40 ng). CAMs were either non-treated or treated topically with Mab XL313, XL166 or a non-specific control antibody (10 μg/embryo every 24 h for three consecutive treatments). […] At the end of the incubation period the embryos were sacrificed and the CAM tissues were analyzed. Angiogenesis was quantified by counting the number of angiogenic branching blood vessels within the area of the filter disc. The angiogenic index was determined by subtracting the mean number of blood vessel branch points from untreated CAMs from each experimental condition. Eight to twelve embryos were used per condition and experiments were repeated at least three times.
The effects of the soluble RGD containing collagen peptides on inflammation were examined.

The subject of assay [2] is P38MAPK. Put plainly: P38MAPK phosphorylation in HRMVEC attached to collagen peptides, Western blot. It is filed as cell-based, human. To be noted: cells attached to immobilized peptide; FIG. 6E. As to the method: (§3) Endothelial cells (HUVECs or HRMVECs) were incubated in serum free media with 1 mM MgCl2, 0.2 mM MnCl2 in the presence of a Src inhibitor, PP2, (10 μM) a P38MAPK inhibitor, SB202190 (10 μM) or vehicle only (DMSO) for 10 min at 37° C. Treated cells were then seeded on to immobilized P-1 and P-2 and lysates were collected at 15 min.
as §1, with “For detection of proteins larger than 50 kD, 10% gels were used; for proteins smaller than 50 kD 15% gels were used.” left out, “migration. Protein was transferred to nitrocellulose membranes using a wet tank system and blocked for 1 h using 10% non-fat dried milk in tris-buffered saline with 0.01% Tween-20 (TBS-T). […] Membranes were washed 3 times in TBS-T for five minutes. Blots were then incubated with HRP conjugated secondary antibodies (1:15000) in 1% non-fat milk in TBS-T for 1 h.” for “migration.”
A general note: A western blot detects proteins with antibodies after separation by electrophoresis.

Assay [3] has as its system P38MAPK. Put plainly: P38MAPK phosphorylation in HUVECs attached to collagen peptides, Western blot. To be noted: cells attached to immobilized peptide; FIG. 6D. It is filed as cell-based, human. As to the method:
as §3
as §1, with “migration. Protein was transferred to nitrocellulose membranes using a wet tank system and blocked for 1 h using 10% non-fat dried milk in tris-buffered saline with 0.01% Tween-20 (TBS-T).” for “migration.”, “intensity. […]” for “intensity.”

Assay [4] relates to chick chorioallantoic membrane (CAM). Put plainly: Chick CAM angiogenesis assay, induction by RGD collagen peptides. It is filed as in vivo. To be noted: chick CAM. As to the method: as §2
To examine this possibility, the effects of the RGDKGE (SEQ ID NO. 1) containing collagen peptide on angiogenesis and inflammation in the chick CAM were assessed.

For assay [5], the system named is P38MAPK. Briefly: Phosphorylated P38MAPK in CAM tissue lysates, Western blot. It is filed as in vivo, chick. To be noted: Image-J quantification, FIG. 6B. As to the method: as §2
Whole cell and CAM tissue lysates were collected in RIPA buffer supplemented with 1× protease inhibitor and 1× phosphatase inhibitor and were run on polyacrylamide gels using denaturing conditions. […] Western blot bands were quantified using Image J software based on pixel intensity.

For QGPRGDKGE [Mab P-2], the “HRMVEC growth with soluble peptide” value in the assay on HRMVEC is listed as “significantly (P<0.05) enhanced endothelial cell growth”. Also, the “Fak phosphorylation following ligation of peptide” value with Fak is reported as “Minimal Fak phosphorylation”. The “CAM inflammation following stimulation with peptide” value in assay [1] is “significantly (P<0.05) induced inflammation to nearly that of FGF-2 stimulation”. Further, the “phosphorylation of P38MAPK in HRMVEC, P-2 as compared to P-1” value with P38MAPK [2] was “enhanced phosphorylation of P38MAPK”. Moreover, the “phosphorylation of P38MAPK in HUVECs, P-2 as compared to P-1” value in the assay with P38MAPK [3] is recorded as “enhanced phosphorylation of P38MAPK”. For the same sequence, in assay [4] (FIG. 5B), the “dose dependent induction of CAM angiogenesis” value is “dose dependently enhanced angiogenesis” and the “dose of maximum induction of angiogenesis” value turned out to be 100 ng/CAM. Moreover, the “induction of CAM angiogenesis as compared to no treatment” value in assay [4] (peptides 100 ng/ml, FIG. 5C) was “significantly (P>0.05) induced angiogenesis”. Besides, the “increase in phosphorylation of P38MAPK as compared to controls” value with P38MAPK [5] was found to be 4 fold.
